Drawing on patent US20240109917A1 (ACTELION PHARMACEUTICALS LTD, priority 2020, published 2024), this text covers IC50 for 21 compounds.

Experiment [1] deals with Tb-labeled inactive PDGFRβ (Homo sapiens (Human), UniProt P09619). The experiment in a line: PDGFRβ LanthaScreen Assay. Format: binding. The conditions noted are these: read-out: PDGFR Lantha IC50.
The next experiment deals with PDGFRβ (Rattus norvegicus (Rat), UniProt Q05030). In words: PDGFRβ Cellular Assay (PDGFRb P-Y751 HTRF in A10 cells stimulated with PDGF-BB). Format: cell-based. In outline: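 Rat A10 cells, plated overnight, were treated with compound for 3 hours, then stimulated with PDGF-BB (working stock 100 ng/mL in 10% FBS medium). After lysis, PDGFRβ P-Y751 was detected by HTRF.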
PDGFRβ, sequence (Q05030 32-1097): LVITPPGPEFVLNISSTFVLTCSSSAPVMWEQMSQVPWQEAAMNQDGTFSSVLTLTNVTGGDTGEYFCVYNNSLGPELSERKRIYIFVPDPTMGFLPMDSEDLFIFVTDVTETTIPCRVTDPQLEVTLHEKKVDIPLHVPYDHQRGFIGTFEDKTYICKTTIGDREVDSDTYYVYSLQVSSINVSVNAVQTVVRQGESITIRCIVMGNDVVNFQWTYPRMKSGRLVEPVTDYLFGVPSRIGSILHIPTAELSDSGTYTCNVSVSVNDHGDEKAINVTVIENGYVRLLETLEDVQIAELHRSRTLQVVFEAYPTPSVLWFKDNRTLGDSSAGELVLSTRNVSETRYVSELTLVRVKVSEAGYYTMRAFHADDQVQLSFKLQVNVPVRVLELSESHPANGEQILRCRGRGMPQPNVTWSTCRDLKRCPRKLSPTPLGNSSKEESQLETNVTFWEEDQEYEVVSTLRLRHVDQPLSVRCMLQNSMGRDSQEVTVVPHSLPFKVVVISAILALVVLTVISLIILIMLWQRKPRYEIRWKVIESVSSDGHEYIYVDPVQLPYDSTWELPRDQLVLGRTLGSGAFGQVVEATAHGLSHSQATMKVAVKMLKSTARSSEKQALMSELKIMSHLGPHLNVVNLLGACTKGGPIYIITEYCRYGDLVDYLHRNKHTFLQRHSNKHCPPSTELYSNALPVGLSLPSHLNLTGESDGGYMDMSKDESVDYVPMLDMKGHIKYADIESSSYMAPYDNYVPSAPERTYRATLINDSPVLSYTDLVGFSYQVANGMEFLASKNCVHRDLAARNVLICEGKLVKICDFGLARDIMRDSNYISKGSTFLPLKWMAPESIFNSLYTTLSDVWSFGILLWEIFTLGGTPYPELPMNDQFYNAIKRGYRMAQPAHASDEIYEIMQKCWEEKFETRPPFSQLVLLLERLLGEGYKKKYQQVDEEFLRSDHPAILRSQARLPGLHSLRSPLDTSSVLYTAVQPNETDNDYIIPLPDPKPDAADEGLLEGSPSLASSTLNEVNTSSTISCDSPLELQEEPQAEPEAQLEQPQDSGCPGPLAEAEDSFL

A further experiment deals with VEGFR2, unphosphorylated (Homo sapiens (Human), UniProt P35968). The experiment in a line: VEGFR ADP GLO Assay. Format: biochemical.
VEGFR2, unphosphorylated, sequence (P35968 20-1356): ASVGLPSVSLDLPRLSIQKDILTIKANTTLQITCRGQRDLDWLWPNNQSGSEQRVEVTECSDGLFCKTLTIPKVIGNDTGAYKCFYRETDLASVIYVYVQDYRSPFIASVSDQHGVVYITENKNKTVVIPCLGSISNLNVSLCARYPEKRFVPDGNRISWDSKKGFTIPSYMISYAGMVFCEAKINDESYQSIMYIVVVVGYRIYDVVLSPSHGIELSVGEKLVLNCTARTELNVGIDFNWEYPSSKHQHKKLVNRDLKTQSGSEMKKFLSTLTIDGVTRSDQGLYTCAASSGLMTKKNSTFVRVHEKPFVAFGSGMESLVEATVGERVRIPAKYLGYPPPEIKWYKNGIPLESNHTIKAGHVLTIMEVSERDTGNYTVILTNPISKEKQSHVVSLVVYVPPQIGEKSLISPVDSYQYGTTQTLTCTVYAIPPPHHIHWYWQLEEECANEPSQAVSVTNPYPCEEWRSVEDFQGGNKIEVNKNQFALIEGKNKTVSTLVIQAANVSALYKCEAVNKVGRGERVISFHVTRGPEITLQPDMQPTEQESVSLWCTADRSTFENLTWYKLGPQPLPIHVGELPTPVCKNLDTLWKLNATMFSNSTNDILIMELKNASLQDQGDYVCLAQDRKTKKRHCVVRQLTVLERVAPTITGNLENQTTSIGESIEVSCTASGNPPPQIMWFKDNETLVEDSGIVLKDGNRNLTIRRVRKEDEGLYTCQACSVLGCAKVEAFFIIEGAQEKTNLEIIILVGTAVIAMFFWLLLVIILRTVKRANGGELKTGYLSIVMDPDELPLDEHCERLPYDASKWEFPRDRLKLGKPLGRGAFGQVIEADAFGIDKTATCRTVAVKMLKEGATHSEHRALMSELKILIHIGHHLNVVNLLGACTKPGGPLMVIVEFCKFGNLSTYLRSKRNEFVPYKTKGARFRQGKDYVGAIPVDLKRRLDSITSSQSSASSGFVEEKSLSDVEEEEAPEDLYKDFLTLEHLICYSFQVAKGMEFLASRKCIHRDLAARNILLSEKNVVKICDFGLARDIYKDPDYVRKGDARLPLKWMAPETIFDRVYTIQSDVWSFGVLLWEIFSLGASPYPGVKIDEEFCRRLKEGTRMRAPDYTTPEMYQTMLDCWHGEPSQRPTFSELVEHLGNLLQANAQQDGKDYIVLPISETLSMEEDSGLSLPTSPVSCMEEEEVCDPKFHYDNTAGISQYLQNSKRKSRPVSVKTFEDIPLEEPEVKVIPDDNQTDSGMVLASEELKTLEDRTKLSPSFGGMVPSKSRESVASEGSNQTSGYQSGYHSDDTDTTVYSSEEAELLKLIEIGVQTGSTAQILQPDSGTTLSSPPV

Structures are written as SMILES. Read-outs that look alike come from different tables or passages of the source.

Tb-labeled inactive PDGFRβ, sequence (P09619 33-1106): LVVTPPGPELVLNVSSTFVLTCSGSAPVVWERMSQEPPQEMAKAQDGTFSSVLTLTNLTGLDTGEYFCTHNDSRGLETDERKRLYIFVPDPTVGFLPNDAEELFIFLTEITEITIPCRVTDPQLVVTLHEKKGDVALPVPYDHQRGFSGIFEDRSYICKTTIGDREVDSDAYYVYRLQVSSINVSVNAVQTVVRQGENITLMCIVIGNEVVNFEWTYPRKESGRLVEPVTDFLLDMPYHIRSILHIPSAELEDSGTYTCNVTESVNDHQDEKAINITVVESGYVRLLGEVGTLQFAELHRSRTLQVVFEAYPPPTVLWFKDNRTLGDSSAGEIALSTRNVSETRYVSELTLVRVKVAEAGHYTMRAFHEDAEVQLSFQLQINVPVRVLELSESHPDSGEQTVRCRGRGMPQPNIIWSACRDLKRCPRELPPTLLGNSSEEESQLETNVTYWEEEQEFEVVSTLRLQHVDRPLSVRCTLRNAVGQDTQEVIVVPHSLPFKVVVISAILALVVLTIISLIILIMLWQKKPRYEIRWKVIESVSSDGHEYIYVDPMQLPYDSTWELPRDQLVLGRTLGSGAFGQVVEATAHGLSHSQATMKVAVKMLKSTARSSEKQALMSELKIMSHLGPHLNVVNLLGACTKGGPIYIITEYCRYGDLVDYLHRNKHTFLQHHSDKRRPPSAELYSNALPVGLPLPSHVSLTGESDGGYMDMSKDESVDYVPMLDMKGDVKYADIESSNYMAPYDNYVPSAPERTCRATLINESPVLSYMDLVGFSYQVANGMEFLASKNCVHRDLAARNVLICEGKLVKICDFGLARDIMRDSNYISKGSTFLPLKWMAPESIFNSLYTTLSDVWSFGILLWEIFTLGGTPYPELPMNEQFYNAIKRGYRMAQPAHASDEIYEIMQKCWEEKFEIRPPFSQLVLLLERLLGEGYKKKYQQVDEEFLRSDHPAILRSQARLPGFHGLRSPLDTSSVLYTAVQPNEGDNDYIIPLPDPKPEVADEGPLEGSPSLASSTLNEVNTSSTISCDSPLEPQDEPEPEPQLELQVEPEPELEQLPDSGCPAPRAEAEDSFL

Regarding `Cc1cc(C(=O)NCCN2CC[C@H](O)C2)sc1NC(=O)c1cnn2cc(-c3cnn(C)c3)sc12` [Example 195, (S)—N-(5-((2-(3-hydroxypyrrolidin-1-yl)ethyl)carbamoyl)-3-methylthiophen-2-yl)-2-(1-methyl-1H-pyrazol-4-yl)pyrazolo[5,1-b]thiazole-7-carboxamide], the IC50 in experiment [1] was greater than 3 µM; at PDGFRβ (read-out: PDGFR Cellular IC50), greater than 3 µM; against VEGFR2, unphosphorylated it was greater than 7.5 µM.

Consider `Cc1cc(C(=O)NCCN2CCOCC23CC3)sc1NC(=O)c1cnn2cc(-c3cnn(C)c3)sc12` [Example 197, N-(5-((2-(7-oxa-4-azaspiro[2.5]octan-4-yl)ethyl)carbamoyl)-3-methylthiophen-2-yl)-2-(1-methyl-1H-pyrazol-4-yl)pyrazolo[5,1-b]thiazole-7-carboxamide], for which the IC50 is 0.051 µM in experiment [1]; 0.613 µM on PDGFRβ (read-out: PDGFR Cellular IC50); greater than 7.5 µM against VEGFR2, unphosphorylated.

On to `Cc1cc(C(=O)NCCN2[C@H](C)CCC[C@@H]2C)sc1NC(=O)c1cnn2cc(-c3cnn(C)c3)sc12` [Example 198, N-(5-((2-((2S,6R)-2,6-dimethylpiperidin-1-yl)ethyl)carbamoyl)-3-methylthiophen-2-yl)-2-(1-methyl-1H-pyrazol-4-yl)pyrazolo[5,1-b]thiazole-7-carboxamide], for which the IC50 in experiment [1] was 0.111 µM; against PDGFRβ (PDGFR Cellular IC50), 0.105 µM; against VEGFR2, unphosphorylated, greater than 7.5 µM.

As to `Cc1cc(C(=O)NCCN2CC3CCC2CC3)sc1NC(=O)c1cnn2cc(-c3cnn(C)c3)sc12` [Example 199, N-(5-((2-(2-azabicyclo[2.2.2]octan-2-yl)ethyl)carbamoyl)-3-methylthiophen-2-yl)-2-(1-methyl-1H-pyrazol-4-yl)pyrazolo[5,1-b]thiazole-7-carboxamide], the IC50 is 0.125 µM in experiment [1]; 0.237 µM on PDGFRβ (read-out: PDGFR Cellular IC50); greater than 7.5 µM at VEGFR2, unphosphorylated.

As for `Cc1cc(C(=O)NCCN2CCCC(O)C2)sc1NC(=O)c1cnn2cc(-c3cnn(C)c3)sc12` (stereo not drawn) [Example 200, N-(5-((2-(3-hydroxypiperidin-1-yl)ethyl)carbamoyl)-3-methylthiophen-2-yl)-2-(1-methyl-1H-pyrazol-4-yl)pyrazolo[5,1-b]thiazole-7-carboxamide], the IC50 in experiment [1] is 2.21 µM; on PDGFRβ (read-out: PDGFR Cellular IC50), greater than 3 µM; on VEGFR2, unphosphorylated, greater than 7.5 µM.

For `Cc1cc(C(=O)NCCCN2CCCC2(C)C)sc1NC(=O)c1cnn2cc(-c3cnn(C)c3)sc12` [Example 201, N-(5-((3-(2,2-dimethylpyrrolidin-1-yl)propyl)carbamoyl)-3-methylthiophen-2-yl)-2-(1-methyl-1H-pyrazol-4-yl)pyrazolo[5,1-b]thiazole-7-carboxamide], the IC50 was 2.45 µM in experiment [1]; 1.44 µM on PDGFRβ (read-out: PDGFR Cellular IC50); greater than 7.5 µM against VEGFR2, unphosphorylated.

For `Cc1cc(C(=O)NCC(C)(C)N2CCCC2)sc1NC(=O)c1cnn2cc(-c3cnn(C)c3)sc12` [Example 202, 2-(1-methyl-1H-pyrazol-4-yl)-N-(3-methyl-5-((2-methyl-2-(pyrrolidin-1-yl)propyl)carbamoyl)thiophen-2-yl)pyrazolo[5,1-b]thiazole-7-carboxamide], the IC50 was greater than 3 µM in experiment [1]; greater than 3 µM on PDGFRβ (PDGFR Cellular IC50); greater than 7.5 µM against VEGFR2, unphosphorylated.

Regarding `Cc1cc(C(=O)NCCN2CCC3(CCC3)CC2)sc1NC(=O)c1cnn2cc(-c3cnn(C)c3)sc12` [Example 203, N-(5-((2-(7-azaspiro[3.5]nonan-7-yl)ethyl)carbamoyl)-3-methylthiophen-2-yl)-2-(1-methyl-1H-pyrazol-4-yl)pyrazolo[5,1-b]thiazole-7-carboxamide], the IC50 in experiment [1] is 1.06 µM; at PDGFRβ (read-out: PDGFR Cellular IC50), 0.449 µM; against VEGFR2, unphosphorylated, greater than 7.5 µM.

For the compound `Cc1cc(C(=O)NCCN2CCc3ccccc3C2)sc1NC(=O)c1cnn2cc(-c3cnn(C)c3)sc12` [Example 204, N-(5-((2-(3,4-dihydroisoquinolin-2 (1H)-yl)ethyl)carbamoyl)-3-methylthiophen-2-yl)-2-(1-methyl-1H-pyrazol-4-yl)pyrazolo[5,1-b]thiazole-7-carboxamide], the IC50 was 0.42 µM in experiment [1]; 0.46 µM at PDGFRβ (read-out: PDGFR Cellular IC50); greater than 7.5 µM on VEGFR2, unphosphorylated.

On to `CCc1cc(C(=O)NCCN2CCCC23CCC3)sc1NC(=O)c1cnn2cc(-c3cnn(C)c3)sc12` [Example 205, N-(5-((2-(5-azaspiro[3.4]octan-5-yl)ethyl)carbamoyl)-3-ethylthiophen-2-yl)-2-(1-methyl-1H-pyrazol-4-yl)pyrazolo[5,1-b]thiazole-7-carboxamide], for which the IC50 in experiment [1] is 0.107 µM; at PDGFRβ (read-out: PDGFR Cellular IC50), 0.562 µM; on VEGFR2, unphosphorylated it was greater than 7.5 µM.

For the compound `Cn1cc(-c2cn3ncc(C(=O)Nc4sc(C(=O)NCCN5CCCC56CCC6)cc4C#N)c3s2)cn1` [Example 206, N-(5-((2-(5-azaspiro[3.4]octan-5-yl)ethyl)carbamoyl)-3-cyanothiophen-2-yl)-2-(1-methyl-1H-pyrazol-4-yl)pyrazolo[5,1-b]thiazole-7-carboxamide], the IC50 in experiment [1] was greater than 3 µM; at PDGFRβ (read-out: PDGFR Cellular IC50), greater than 3 µM; at VEGFR2, unphosphorylated, greater than 2.5 µM.

For `Cn1cc(-c2cn3ncc(C(=O)Nc4cc(C(=O)NCCN5CCCC5(C)C)ccc4F)c3s2)cn1` [Example 207, N-(5-((2-(2,2-dimethylpyrrolidin-1-yl)ethyl)carbamoyl)-2-fluorophenyl)-2-(1-methyl-1H-pyrazol-4-yl)pyrazolo[5,1-b]thiazole-7-carboxamide], the IC50 was 0.0044 µM in experiment [1]; 0.0033 µM on PDGFRβ (read-out: PDGFR Cellular IC50); greater than 7.5 µM against VEGFR2, unphosphorylated.

Consider `Cc1ncc(C(=O)NCCN2C[C@H]3CC[C@@H]2C3)cc1NC(=O)c1cnn2cc(-c3cnn(C)c3C)sc12` [Example 208, N-(5-((2-((1R,4S)-2-azabicyclo[2.2.1]heptan-2-yl)ethyl)carbamoyl)-2-methylpyridin-3-yl)-2-(1,5-dimethyl-1H-pyrazol-4-yl)pyrazolo[5,1-b]thiazole-7-carboxamide], for which the IC50 in experiment [1] is 0.0043 µM; on PDGFRβ (read-out: PDGFR Cellular IC50), 0.096 µM; against VEGFR2, unphosphorylated, greater than 7.5 µM.

Regarding `Cc1ncc(C(=O)NCCN2CCCC23CCC3)cc1NC(=O)c1cnn2cc(-c3cnn(C)c3C)sc12` [Example 209, N-(5-((2-(5-azaspiro[3.4]octan-5-yl)ethyl)carbamoyl)-2-methyl-pyridin-3-yl)-2-(1,5-dimethyl-1H-pyrazol-4-yl)pyrazolo[5,1-b]thiazole-7-carboxamide], the IC50 is 0.0022 µM in experiment [1]; 0.0028 µM at PDGFRβ (read-out: PDGFR Cellular IC50); greater than 7.5 µM against VEGFR2, unphosphorylated.

As for `Cc1ncc(C(=O)NCCN2CC3CCC2C3)cc1NC(=O)c1cnn2cc(-c3cnn(C)c3C)sc12` (stereo not drawn) [Example 210, N-(5-((2-(2-azabicyclo[2.2.1]heptan-2-yl)ethyl)carbamoyl)-2-methylpyridin-3-yl)-2-(1,5-dimethyl-1H-pyrazol-4-yl)pyrazolo[5,1-b]thiazole-7-carboxamide], the IC50 in experiment [1] is 0.0026 µM; at PDGFRβ (read-out: PDGFR Cellular IC50), 0.0898 µM; against VEGFR2, unphosphorylated it was greater than 7.5 µM.

`Cc1ncc(C(=O)NCCN2C[C@H]3CC[C@@H]2C3)cc1NC(=O)c1cnn2cc(-c3cn(C)nc3C)sc12` [Example 211, N-(5-((2-((1R,4S)-2-azabicyclo[2.2.1]heptan-2-yl)ethyl)carbamoyl)-2-methylpyridin-3-yl)-2-(1,3-dimethyl-1H-pyrazol-4-yl)pyrazolo[5,1-b]thiazole-7-carboxamide]: the IC50 in experiment [1] is 0.0024 µM; at PDGFRβ (read-out: PDGFR Cellular IC50), 0.0636 µM; against VEGFR2, unphosphorylated, greater than 7.5 µM.

As for `Cc1ncc(C(=O)NCCN2CC3CCC2C3)cc1NC(=O)c1cnn2cc(-c3cn(C)nc3C)sc12` (stereo not drawn) [Example 212, N-(5-((2-(2-azabicyclo[2.2.1]heptan-2-yl)ethyl)carbamoyl)-2-methylpyridin-3-yl)-2-(1,3-dimethyl-1H-pyrazol-4-yl)pyrazolo[5,1-b]thiazole-7-carboxamide], the IC50 in experiment [1] is 0.0013 µM; on PDGFRβ (read-out: PDGFR Cellular IC50), 0.104 µM; against VEGFR2, unphosphorylated it was greater than 7.5 µM.

With `Cc1ncc(C(=O)NCCN2CCCC23CCC3)cc1NC(=O)c1cnn2cc(-c3cn(C)nc3C)sc12` [Example 213, N-(5-((2-(5-azaspiro[3.4]octan-5-yl)ethyl)carbamoyl)-2-methylpyridin-3-yl)-2-(1,3-dimethyl-1H-pyrazol-4-yl)pyrazolo[5,1-b]thiazole-7-carboxamide], the IC50 in experiment [1] was 0.0019 µM; on PDGFRβ (read-out: PDGFR Cellular IC50), 0.0024 µM; on VEGFR2, unphosphorylated it was greater than 7.5 µM.

Take `Cc1ncc(C(=O)NCCN2CCCC23CCC3)cc1NC(=O)c1cnn2cc(-c3c(C)nn(C)c3C)sc12` [Example 214, N-(5-((2-(5-azaspiro[3.4]octan-5-yl)ethyl)carbamoyl)-2-methylpyridin-3-yl)-2-(1,3,5-trimethyl-1H-pyrazol-4-yl)pyrazolo[5,1-b]thiazole-7-carboxamide]: the IC50 in experiment [1] was 0.0018 µM; on PDGFRβ (read-out: PDGFR Cellular IC50) it was 0.0039 µM; against VEGFR2, unphosphorylated, greater than 7.5 µM.

On to `Cc1ncc(NC(=O)CCCN2CCC23CCC3)cc1NC(=O)c1cnn2cc(-c3cnn(C)c3)sc12` [Example 215, N-(5-(4-(1-azaspiro[3.3]heptan-1-yl)butanamido)-2-methylpyridin-3-yl)-2-(1-methyl-1H-pyrazol-4-yl)pyrazolo[5,1-b]thiazole-7-carboxamide], for which the IC50 was 0.0168 µM in experiment [1]; 0.0801 µM against PDGFRβ (PDGFR Cellular IC50); greater than 7.5 µM against VEGFR2, unphosphorylated.

As to `COCCn1cc(-c2cn3ncc(C(=O)Nc4cc(NC(=O)CCCN5CCC[C@@H]5C)cnc4C)c3s2)cn1` [Example 216, (S)-2-(1-(2-methoxyethyl)-1H-pyrazol-4-yl)-N-(2-methyl-5-(4-(2-methylpyrrolidin-1-yl)butanamido)pyridin-3-yl)pyrazolo[5,1-b]thiazole-7-carboxamide], the IC50 in experiment [1] was 0.0478 µM; at PDGFRβ (PDGFR Cellular IC50), 0.626 µM; against VEGFR2, unphosphorylated, greater than 7.5 µM.
